Among the data in patent publication US9556139B2, “6-substituted phenoxychroman carboxylic acid derivatives” (Array BioPharma Inc., priority 2008, dated 2017) are EC50 values, retold here.

For orientation: EC50 means the midpoint of the concentration-response curve.

The structures appear in SMILES notation.

human DP2, sequence (Q9Y5Y4 whole entry): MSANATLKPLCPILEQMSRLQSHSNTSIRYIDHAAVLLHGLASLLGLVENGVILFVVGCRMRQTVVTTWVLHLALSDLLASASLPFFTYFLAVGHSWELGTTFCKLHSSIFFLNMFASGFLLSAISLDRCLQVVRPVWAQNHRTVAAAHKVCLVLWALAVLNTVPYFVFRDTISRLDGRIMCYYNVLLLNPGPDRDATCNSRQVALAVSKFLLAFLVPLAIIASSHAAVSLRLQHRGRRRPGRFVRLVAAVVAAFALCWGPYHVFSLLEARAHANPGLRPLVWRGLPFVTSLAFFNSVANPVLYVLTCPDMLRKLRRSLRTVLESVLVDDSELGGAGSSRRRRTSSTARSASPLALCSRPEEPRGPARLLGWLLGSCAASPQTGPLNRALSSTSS

The first test concerns the target human DP2 (Homo sapiens (Human), UniProt Q9Y5Y4). Kind of test: DP-2 Binding Inhibition Assay (3H-PGD2 binding to membranes of K562 cells expressing DP2). Conditions: read-out: EC50 (Nm) 1% HSA; inhibition of 3H-PGD2 binding, 1% HSA. Put shortly:
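Radioligand filtration binding: ³H-PGD2 displacement from DP2-expressing K562 cell membranes, 60 min, room temperature, pH 7.4, under 0.1% BSA, 1% HSA or 4% HSA.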
With `N#Cc1cc2c(cc1Oc1ccc(C(=O)Nc3ccc(Cl)c(Cl)c3)cc1)OCCC2C(=O)O` (centres unmarked) [Example 8, 6-Cyano-7-(4-(3,4-dichlorophenylcarbamoyl)phenoxy)chroman-4-carboxylic acid], the concentration giving a half-maximal response (EC50) was 16 nM.

As for `N#Cc1cc2c(cc1Oc1ccc(C(=O)NCCc3cccc4ccccc34)cc1)OCCC2C(=O)O` (centres unmarked) [Example 55, 6-Cyano-7-(4-(2-(naphthalen-1-yl)ethylcarbamoyl)phenoxy)chroman-4-carboxylic acid], the EC50 was determined as 12.1 nM. The same measure, in the same setting: to `N#Cc1cc2c(cc1Oc1ccc(C(=O)NCc3cccc4ccccc34)cc1)OCCC2C(=O)O` (centres unmarked) [Example 54, 6-Cyano-7-(4-(naphthalen-1-ylmethylcarbamoyl)phenoxy)chroman-4-carboxylic acid] belongs 109 nM; to `N#Cc1cc2c(cc1Oc1ccc(C(=O)NC3Cc4ccccc4C3)cc1)OCCC2C(=O)O` (centres unmarked) [Example 6, 6-Cyano-7-(4-(2,3-dihydro-1H-inden-2-ylcarbamoyl)phenoxy)chroman-4-carboxylic acid], 77.3 nM.

Still in this test, the particulars now being: read-out: EC50 (nM) 4% HSA; inhibition of 3H-PGD2 binding, 4% HSA.
As for `O=C(NCCc1ccc(C(F)(F)F)cc1C(F)(F)F)c1ccc(Oc2cc3c(cc2Cl)C(C(=O)O)CCO3)cc1` (centres unmarked) [Example 221, 7-(4-(2,4-bis(trifluoromethyl)phenethylcarbamoyl)phenoxy)-6-chlorochroman-4-carboxylic acid], the EC50 was found to be 45 nM. The same measure, in the same setting: the value for `CC(C)(C)C1CCC(NC(=O)c2ccc(Oc3cc4c(cc3Cl)C(C(=O)O)CCO4)cc2)CC1` (centres unmarked) [Example 156, 7-(4-(4-tert-butylcyclohexylcarbamoyl)phenoxy)-6-chlorochroman-4-carboxylic acid] was 509 nM; that for `CCOc1ccccc1CCNC(=O)c1ccc(Oc2cc3c(cc2Cl)C(C(=O)O)CCO3)cc1` (centres unmarked) [Example 114, Sodium 6-chloro-7-(4-(2-ethoxyphenethylcarbamoyl)phenoxy)chroman-4-carboxylate] was 91 nM. The same measure, in the same setting: the value for `COc1ccc(C2CCC(NC(=O)c3ccc(Oc4cc5c(cc4Cl)C(C(=O)O)CCO5)cc3)C2)cc1` (centres unmarked) [Example 174, Sodium 6-chloro-7-(4-(3-(4-methoxyphenyl)cyclopentylcarbamoyl)phenoxy)chroman-4-carboxylate] was 723 nM. On to `O=C(NCCc1ccc(Cl)cc1)c1ccc(Oc2c(C3CC3)cc3c(c2C2CC2)OCCC3C(=O)O)cc1` (centres unmarked) [Example 39, Sodium 7-(4-(4-chlorophenethylcarbamoyl)phenoxy)-6,8-dicyclopropylchroman-4-carboxylate], for which the EC50 was determined as 68.2 nM.

For `O=C(NCCc1ccc(Cl)c(Cl)c1)c1ccc(Oc2cc3c(cc2Cl)C(C(=O)O)CCO3)cc1` (centres unmarked) [Example 138, Sodium 6-chloro-7-(4-(3,4-dichlorophenethylcarbamoyl)phenoxy)chroman-4-carboxylate], the EC50 is 239 nM.

In the case of `O=C(NCCc1ccc(F)cc1F)c1ccc(Oc2cc3c(cc2Cl)C(C(=O)O)CCO3)cc1` (centres unmarked) [Example 81, Sodium 6-chloro-7-(4-(2,4-difluorophenethylcarbamoyl)phenoxy)chroman-4-carboxylate], the EC50 stood at 191 nM. Regarding `O=C(NCCc1ccc(C2CC2)cc1Cl)c1ccc(Oc2cc3c(cc2Cl)C(C(=O)O)CCO3)cc1` (centres unmarked) [Example 30, Sodium 6-chloro-7-(4-(2-chloro-4-cyclopropylphenethylcarbamoyl)phenoxy)chroman-4-carboxylate], the EC50 was 301 nM.

For `O=C(NCCc1ccccc1F)c1ccc(Oc2cc3c(cc2Cl)C(C(=O)O)CCO3)cc1` (centres unmarked) [Example 153, Sodium 6-chloro-7-(4-(2-fluorophenethylcarbamoyl)phenoxy)chroman-4-carboxylate], the EC50 was 521 nM. As for `O=C(NCC(O)c1ccccc1Cl)c1ccc(Oc2cc3c(cc2Cl)C(C(=O)O)CCO3)cc1` (centres unmarked) [Example 185, Sodium 6-chloro-7-(4-(2-(2-chlorophenyl)-2-hydroxyethylcarbamoyl)phenoxy)chroman-4-carboxylate], the EC50 was 857 nM. As to `O=C(NCCCCc1ccccc1)c1ccc(Oc2cc3c(cc2Cl)C(C(=O)O)CCO3)cc1` (centres unmarked) [Example 13, Sodium 6-chloro-7-(4-(4-phenylbutylcarbamoyl)phenoxy)chroman-4-carboxylate], the EC50 came out at 405 nM. Consider `O=C(NCCc1ccc(O)cc1)c1ccc(Oc2cc3c(cc2Cl)C(C(=O)O)CCO3)cc1` (centres unmarked) [Example 84, Sodium 6-chloro-7-(4-(4-hydroxyphenethylcarbamoyl)phenoxy)chroman-4-carboxylate], for which the half-maximal effective concentration (EC50) is 1380 nM. Same read-out and setting: to `O=C(NCCc1cc(Cl)ccc1Cl)c1ccc(Oc2cc3c(cc2Cl)C(C(=O)O)CCO3)cc1` (centres unmarked) [Example 103, Sodium 6-chloro-7-(4-(2,5-dichlorophenethylcarbamoyl)phenoxy)chroman-4-carboxylate] belongs 392 nM; to `Cc1cccc(C2CCC(NC(=O)c3ccc(Oc4cc5c(cc4Cl)C(C(=O)O)CCO5)cc3)C2)c1` (centres unmarked) [Example 169, Sodium 6-chloro-7-(4-(3-(3-methylphenyl)cyclopentylcarbamoyl)phenoxy)chroman-4-carboxylate], 204 nM; to `N#Cc1cc2c(cc1Oc1ccc(C(=O)NCCc3ccc(-c4ccccc4)cc3)cc1)OCCC2C(=O)O` (centres unmarked) [Example 58, 7-(4-(2-(Biphenyl-4-yl)ethylcarbamoyl)phenoxy)-6-cyanochroman-4-carboxylic acid], 434 nM.

Regarding `O=C(NCCc1cccn1-c1ccc(C(F)(F)F)cc1)c1ccc(Oc2cc3c(cc2Cl)C(C(=O)O)CCO3)cc1` (centres unmarked) [Example 194, sodium 6-chloro-7-(4-(2-(1-(4-(trifluoromethyl)phenyl)-1H-pyrrol-2-yl)ethylcarbamoyl)phenoxy)chroman-4-carboxylate], the EC50 amounted to 3010 nM. On the same count and under the same terms, to `CSc1ccccc1CCNC(=O)c1ccc(Oc2cc3c(cc2Cl)C(C(=O)O)CCO3)cc1` (centres unmarked) [Example 117, Sodium 6-chloro-7-(4-(2-(methylthio)phenethylcarbamoyl)phenoxy)chroman-4-carboxylate] belongs 246 nM.

In the case of `COc1cccc(C2CCCC(NC(=O)c3ccc(Oc4cc5c(cc4Cl)C(C(=O)O)CCO5)cc3)C2)c1` (centres unmarked) [Example 163, 6-Chloro-7-(4-(3-(3-methoxyphenyl)cyclohexylcarbamoyl)phenoxy)chroman-4-carboxylic acid], the EC50 was found to be 509 nM. For `O=C(NC1CCCC(c2ccccc2)C1)c1ccc(Oc2cc3c(cc2Cl)C(C(=O)O)CCO3)cc1` (centres unmarked) [Example 158, 6-Chloro-7-(4-(3-phenylcyclohexylcarbamoyl)phenoxy)chroman-4-carboxylic acid], the EC50 amounted to 1650 nM.

Turning to `O=C(NCCc1ccccc1Oc1ccccc1)c1ccc(Oc2cc3c(cc2Cl)C(C(=O)O)CCO3)cc1` (centres unmarked) [Example 65, Sodium 6-chloro-7-(4-(2-phenoxyphenethylcarbamoyl)phenoxy)chroman-4-carboxylate], the EC50 was 80.4 nM. On the same count and under the same terms, the value for `O=C(NC1CCC(c2ccc(Cl)cc2)C1)c1ccc(Oc2cc3c(cc2Cl)C(C(=O)O)CCO3)cc1` (centres unmarked) [Example 168, Sodium 6-chloro-7-(4-(3-(4-chlorophenyl)cyclopentylcarbamoyl)phenoxy)chroman-4-carboxylate] was 302 nM. On to `O=C(NCC/C=C\c1ccccc1Cl)c1ccc(Oc2cc3c(cc2Cl)C(C(=O)O)CCO3)cc1` (centres unmarked) [Example 16, Sodium (Z)-6-chloro-7-(4-(4-(2-chlorophenyl)but-3-enylcarbamoyl)phenoxy)chroman-4-carboxylate], for which the EC50 was found to be 318 nM.
